The values below come from patent US7645763B2, “8-[3-amino-piperidin-1-yl]-xanthines, their preparation and their use as pharmaceutical composition” (Boehringer Ingelheim Pharma GmbH & Co. KG, priority 2004, dated 2010).

T1 sequence (P27487 whole entry): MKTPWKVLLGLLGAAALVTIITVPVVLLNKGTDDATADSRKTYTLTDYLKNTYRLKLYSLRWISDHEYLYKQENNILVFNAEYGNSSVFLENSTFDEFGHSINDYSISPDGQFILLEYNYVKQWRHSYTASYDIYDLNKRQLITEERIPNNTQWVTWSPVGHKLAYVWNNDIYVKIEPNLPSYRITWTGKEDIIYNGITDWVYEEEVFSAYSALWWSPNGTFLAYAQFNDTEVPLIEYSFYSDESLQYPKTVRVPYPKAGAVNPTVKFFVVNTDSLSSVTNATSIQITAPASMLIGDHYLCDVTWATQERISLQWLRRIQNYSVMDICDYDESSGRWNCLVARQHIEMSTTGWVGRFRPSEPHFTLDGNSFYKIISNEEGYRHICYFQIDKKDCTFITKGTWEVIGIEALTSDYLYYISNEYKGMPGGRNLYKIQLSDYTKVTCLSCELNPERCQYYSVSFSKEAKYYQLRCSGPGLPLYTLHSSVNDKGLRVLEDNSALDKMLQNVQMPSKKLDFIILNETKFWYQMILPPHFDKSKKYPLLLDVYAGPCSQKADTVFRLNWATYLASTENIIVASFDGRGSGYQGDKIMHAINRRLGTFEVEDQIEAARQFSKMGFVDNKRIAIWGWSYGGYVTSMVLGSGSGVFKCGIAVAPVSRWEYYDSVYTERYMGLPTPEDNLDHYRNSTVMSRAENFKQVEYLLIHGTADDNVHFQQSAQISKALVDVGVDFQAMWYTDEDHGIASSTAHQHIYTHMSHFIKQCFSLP

The first data set concerns the target T1, DPP-IV (Homo sapiens, UniProt P27487).
T1 construct: an extract of the human colon carcinoma cell line Caco-2 is used as the DPP IV source; endogenous in cells; host or cells: Caco-2 (human colon carcinoma), differentiated to induce DPP-IV expression; Nonidet-P40 solubilized extract
Nature of the data set: DPP-IV assay with Caco-2 cell extract as DPP IV source. Format: biochemical. Conditions: extract of human colon carcinoma cell line Caco-2 as DPP IV source; AFC substrate 100 μM; 60 minutes at ambient temperature; 11-point curves; read-out: DPP IV inhibition IC50. On the procedure:
The differentiation of the cells in order to induce the DPP-IV expression was carried out in accordance with the description by Reiher et al. in an article entitled “Increased expression of intestinal cell line Caco-2” that appeared in Proc. Natl. Acad. Sci. Vol. 90, pp. 5757-5761 (1993). The cell extract was obtained from cells solubilized in a buffer (10 mM Tris HCl, 0.15 M NaCl, 0.04 t.i.u. aprotinin, 0.5% Nonidet-P40, pH 8.0) by centrifugation at 35,000 g for 30 minutes at 4° C. (to remove cell debris).
The DPP-IV assay was carried out as follows:
50 μl of substrate solution (AFC; AFC is amido-4-trifluoromethylcoumarin), final concentration 100 μM, was placed in black microtitre plates. 20 μl of assay buffer (final concentrations 50 mM Tris HCl pH 7.8, 50 mM NaCl, 1% DMSO) was pipetted therein. The reaction was started by the addition of 30 μl of solubilized Caco-2 protein (final concentration 0.14 μg of protein per well). The test substances under investigation were typically added prediluted to 20 μl, while the volume of assay buffer was then reduced accordingly. The reaction was carried out at ambient temperature, the incubation period was 60 minutes. Then the fluorescence was measured in a Victor 1420 Multilabel Counter, with the excitation wavelength at 405 nm and the emission wavelength at 535 nm. Dummy values (corresponding to 0% activity) were obtained in mixtures with no Caco-2 protein (volume replaced by assay buffer), control values (corresponding to 100% activity) were obtained in mixtures without any added substance. The potency of the test substances in question, expressed as IC50 values, were calculated from dosage/activity curves consisting of 11 measured points in each case.
What is called IC50 is the concentration needed to halve the response being measured. As to `CC#CCn1c(N2CCC[C@@H](N)C2)nc2c1c(=O)n(Cc1nc(C)c3ccccc3n1)c(=O)n2C1CC1` [1(1), 1-[(4-methyl-quinazolin-2-yl)methyl]-3-cyclopropyl-7-(2-butyn-1-yl)-8-((R)-3-amino-piperidin-1-yl)-xanthine], the IC50 turned out to be 2.7 nM.

For the compound `CC#CCn1c(N2CCC[C@@H](N)C2)nc2c1c(=O)n(CC(=O)c1cccc(OC)c1)c(=O)n2-c1ccccc1` [1(10), 1-[2-(3-methoxy-phenyl)-2-oxo-ethyl]-3-phenyl-7-(2-butyn-1-yl)-8-((R)-3-amino-piperidin-1-yl)-xanthine], the concentration for half-maximal inhibition (IC50) is 8.1 nM. Same read-out and setting: the figure for `CC#CCn1c(N2CCC[C@@H](N)C2)nc2c1c(=O)n(Cc1ccc3ncccc3n1)c(=O)n2-c1ccccc1` [1(13), 1-[([1,5]naphthyridin-2-yl)methyl]-3-phenyl-7-(2-butyn-1-yl)-8-((R)-3-amino-piperidin-1-yl)-xanthine] is 4 nM; for `CC#CCn1c(N2CCC[C@@H](N)C2)nc2c1c(=O)n(Cc1nc(C)c3ccccc3n1)c(=O)n2-c1ccccc1` [Example 1(8), 1-[(4-methyl-quinazolin-2-yl)methyl]-3-phenyl-7-(2-butyn-1-yl)-8-((R)-3-amino-piperidin-1-yl)-xanthine] it is 4.9 nM.

As to `CC#CCn1c(N2CCC[C@@H](N)C2)nc2c1c(=O)n(CC(=O)c1cccc3oc(=O)n(C)c13)c(=O)n2C1CC1` [Example 1, 1-[2-(3-Methyl-2-oxo-2,3-dihydro-benzoxazol-4-yl)-2-oxo-ethyl]-3-cyclopropyl-7-(2-butyn-1-yl)-8-((R)-3-amino-piperidin-1-yl)-xanthine], the 50% inhibitory concentration (IC50) stood at 3.6 nM.

Tested on in a further data set: not listed separately
Kind of data set: Tolerability in rats after oral administration. The class given is in vivo. Conditions: oral administration of 10 mg/kg.
Turning to `CC#CCn1c(N2CCC[C@@H](N)C2)nc2c1c(=O)n(Cc1nc(C)c3ccccc3n1)c(=O)n2-c1ccccc1` [Example 1(8), 1-[(4-methyl-quinazolin-2-yl)methyl]-3-phenyl-7-(2-butyn-1-yl)-8-((R)-3-amino-piperidin-1-yl)-xanthine], the “toxic side effects / tolerability” value is recorded as “no toxic side effects could be detected”.
